Peptide text beside a SMILES is read from it.
Experiments:
Endothelin-1 receptor [1] = target: T1, Endothelin-1 receptor (Homo sapiens, UniProt P25101); assay: Binding affinity to ETA receptor (unknown origin) assessed as inhibition constant
T1 sequence (P25101 whole entry): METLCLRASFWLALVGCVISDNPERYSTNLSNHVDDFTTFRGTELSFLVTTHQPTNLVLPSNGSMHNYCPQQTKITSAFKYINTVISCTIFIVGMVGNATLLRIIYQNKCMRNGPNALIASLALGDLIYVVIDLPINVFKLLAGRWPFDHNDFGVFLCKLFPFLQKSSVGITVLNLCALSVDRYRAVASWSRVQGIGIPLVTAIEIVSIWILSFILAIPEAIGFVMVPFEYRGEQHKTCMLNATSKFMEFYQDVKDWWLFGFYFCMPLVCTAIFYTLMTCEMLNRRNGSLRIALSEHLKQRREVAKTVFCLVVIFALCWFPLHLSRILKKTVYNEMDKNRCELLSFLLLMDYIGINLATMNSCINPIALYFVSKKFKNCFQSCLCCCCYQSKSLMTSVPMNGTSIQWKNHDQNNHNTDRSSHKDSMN

[2] = target: T2, Endothelin receptor type B (Homo sapiens, UniProt P24530); assay: Binding affinity to ETB receptor (unknown origin) assessed as inhibition constant
T2 sequence (P24530 whole entry): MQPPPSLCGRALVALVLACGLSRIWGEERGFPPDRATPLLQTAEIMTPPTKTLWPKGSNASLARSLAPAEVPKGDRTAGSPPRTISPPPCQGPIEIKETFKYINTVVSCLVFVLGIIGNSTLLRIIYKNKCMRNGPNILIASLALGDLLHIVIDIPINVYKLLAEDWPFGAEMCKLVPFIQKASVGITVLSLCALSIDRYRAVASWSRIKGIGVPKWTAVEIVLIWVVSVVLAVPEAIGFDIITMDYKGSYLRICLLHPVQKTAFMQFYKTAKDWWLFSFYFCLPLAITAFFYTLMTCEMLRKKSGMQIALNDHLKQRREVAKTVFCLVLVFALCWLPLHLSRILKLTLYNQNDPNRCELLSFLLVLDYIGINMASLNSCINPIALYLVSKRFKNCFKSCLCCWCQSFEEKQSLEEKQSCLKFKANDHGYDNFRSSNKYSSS

[3] = Selectivity ratio of IC50 for human ETA receptor stably expressed in CHO cells Membrane to IC50 human ETB receptor stably expressed in CHO cells Membrane; conditions: condition cardiovascular disease; condition vascular disease
[4] = target: T2, Endothelin receptor type B; assay: Displacement of [125I]endhothelin-3 from human ETB receptor stably expressed in CHO cells Membrane assessed as inhibition constant at 25 degC incubated for 4 hrs by saturation binding assay; assay type: cell membranes
Endothelin-1 receptor [5] = target: T1, Endothelin-1 receptor; assay: Displacement of [125I]endhothelin-1 from human ETA receptor stably expressed in CHO cells Membrane assessed as inhibition constant at 25 degC incubated for 4 hrs by saturation binding assay; assay type: cell membranes
[6] = Displacement of [125I]ET-1 from human ETB receptor expressed in green monkey COS7 cells Membrane assessed as inhibition constant incubated for 16 to 18 hrs by gamma counter analysis; assay type: cell membranes
[7] = target: Endothelin receptor type B (Oryctolagus cuniculus, UniProt Q9N0W7); assay: Agonist activity to ETB receptor in rabbit pulmonary artery assessed as induction of vessel ring contraction; assay type: functional, tissue-based
Chain of Endothelin receptor type B (Oryctolagus cuniculus, UniProt Q9N0W7) (Q9N0W7 whole entry): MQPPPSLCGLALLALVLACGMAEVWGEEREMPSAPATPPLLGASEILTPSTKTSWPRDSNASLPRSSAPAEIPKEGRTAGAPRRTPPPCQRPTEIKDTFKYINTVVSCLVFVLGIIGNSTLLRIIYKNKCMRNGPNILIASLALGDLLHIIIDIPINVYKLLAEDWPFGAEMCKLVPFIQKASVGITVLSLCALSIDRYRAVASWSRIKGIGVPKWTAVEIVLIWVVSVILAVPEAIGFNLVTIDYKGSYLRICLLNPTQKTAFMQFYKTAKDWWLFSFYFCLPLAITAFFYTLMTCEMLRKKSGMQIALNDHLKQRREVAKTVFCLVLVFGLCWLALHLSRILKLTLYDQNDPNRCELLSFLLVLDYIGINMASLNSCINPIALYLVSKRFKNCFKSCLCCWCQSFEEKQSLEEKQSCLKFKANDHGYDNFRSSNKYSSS

SMILES	Ki [2] [nM]	Ratio IC50 [3]	other results
CC(C)C[C@@H]1NC(=O)[C@@H](c2cccs2)NC(=O)[C@H](CC(=O)O)NC(=O)[C@H](CC(=O)N2CCN(c3ccccc3)CC2)NC(=O)[C@@H](CC(=O)O)NC(=O)[C@@H](Cc2c[nH]c3ccccc23)NC1=O (HELM PEPTIDE1{D.D.[O=C([C@H](N[*:1])c1cccs1)[*:2]].L.[dW].[dD]}|CHEM1{[c1ccc(N2CCN([*:1])CC2)cc1]}$PEPTIDE1,CHEM1,1:R3-1:R1|PEPTIDE1,PEPTIDE1,1:R1-6:R2$$$V2.0) [listing 1 of 2 here]	590	–	Ki (Endothelin-1 receptor [1]): 1.3 nM
CCCOc1ccc2c(c1)[C@@H](c1ccc(OC)cc1OCC(=O)O)[C@H](C(=O)O)[C@H]2c1ccc2c(c1)OCO2 [SB-209670]	–	90	–
CCCc1cc(C(=O)O)ccc1OC(C(=O)NS(=O)(=O)c1ccc(C(C)C)cc1)c1ccc2c(c1)OCO2 [L-754142]	–	42	Ki [4]: 1420 nM; Ki (Endothelin-1 receptor [5]): 33.6 nM
CC(C)C[C@@H]1NC(=O)[C@@H](c2cccs2)NC(=O)[C@H](CC(=O)O)NC(=O)[C@H](CC(=O)N2CCN(c3ccccc3)CC2)NC(=O)[C@@H](CC(=O)O)NC(=O)[C@@H](Cc2c[nH]c3ccccc23)NC1=O (HELM PEPTIDE1{D.D.[O=C([C@H](N[*:1])c1cccs1)[*:2]].L.[dW].[dD]}|CHEM1{[c1ccc(N2CCN([*:1])CC2)cc1]}$PEPTIDE1,CHEM1,1:R3-1:R1|PEPTIDE1,PEPTIDE1,1:R1-6:R2$$$V2.0) [listing 2 of 2 here]	–	454	–
COc1cc(OC)nc(O[C@@H](C(=O)O)C(OC)(c2ccccc2)c2ccccc2)n1	960	160	Ki (Endothelin-1 receptor [1]): 6 nM
COc1ccccc1Oc1c(NS(=O)(=O)c2ccc(C)cn2)nc(-c2ccnc(-c3nnn[nH]3)c2)nc1OCCO [CLAZOSENTAN]	> 130	>1000	–
Cc1cc2c(cc1CC(=O)c1sccc1S(=O)(=O)Nc1onc(C)c1Cl)OCO2 [SITAXENTAN]	–	>10000	Ki [6]: > 4300 nM
CCCOc1ccc2c(c1)[C@@H](c1ccc(OC)cc1OCCO)[C@H](C(=O)O)[C@H]2c1ccc2c(c1)OCO2	–	1000	–
CC(C)C[C@H](NC(=O)N1CCCCCC1)C(=O)N[C@H](Cc1cn(C)c2ccccc12)C(=O)N[C@H](Cc1ccccn1)C(=O)O	7300	–	–
CC[C@H](C)[C@H](NC(=O)[C@@H](NC(=O)[C@H](CC(=O)O)NC(=O)[C@H](CCC(N)=O)NC(=O)[C@H](Cc1cnc[nH]1)NC(=O)[C@@H]1CSSC[C@H](N)C(=O)N[C@@H]([C@@H](C)O)C(=O)N[C@H]2CSSC[C@H](NC(=O)[C@H](CCC(=O)O)NC(=O)[C@H](CCC(=O)O)NC(=O)[C@H](CC(=O)O)NC(=O)[C@H]([C@@H](C)O)NC(=O)[C@H](CCSC)NC(=O)[C@H](CC(=O)O)NC(=O)[C@H](CC(N)=O)NC2=O)C(=O)N[C@@H](CC(C)C)C(=O)N[C@@H](CC(N)=O)C(=O)N[C@@H](Cc2ccccc2)C(=O)N1)C(C)C)C(=O)N[C@@H](Cc1c[nH]c2ccccc12)C(=O)O	–	–	EC50 [7]: 1.57 nM

— ChEMBL document CHEMBL5678795 (Eur J Pharmacol, 1999)
